# Measured values published in patent US9538734B2, “Germ cell ablation compounds and uses thereof” (THE GENERAL HOSPITAL CORPORATION, priority 2013, dated 2017).
# Experiments:
# [1] = system: primordial germ cells (PGCs); assay: PGC ablation in transgenic zebrafish embryos expressing GFP in PGCs (small molecule screen); format: in vivo
# Method: (§1) In an effort to discover pathways essential for PGC maintenance, a small molecule screen for compounds that promote disappearance of PGCs was performed. The screen was performed with transgenic zebrafish embryos that express GFP exclusively in PGCs. Of 7,000 small molecules screened, three caused disappearance of PGCs without causing other observable changes in embryonic development. The three PGC-ablating compounds were close structural analogs of each other, and the representative compound from this class was named primordazine (FIG. 1A). […] PGC loss was confirmed by multiple PGC lineage markers (FIG. 1B).
# Optimization is driven primarily by potency, meaning that each compound acquired is tested for potency, and potency changes influence subsequent rounds of compound design. For testing compounds, 3-5 transgenic zebrafish embryos (expressing GFP from the vasa promoter) are placed in each well of clear-bottom, black-wall 96 well plates. Embryos are treated with DMSO or varying doses of a compound in two-fold dilutions from 8 uM to 16 nM, beginning at 2 h postfertilization. At 24 h, the plate is loaded onto the screening microscope, which systematically scans wells and captures fluorescent images of fish in each well. The efficacy of each compound dose in ablating PGCs is recorded, yielding an EC50 for each compound.
# zebrafish embryos [2] = assay: Observable effects on embryonic development, apoptosis; format: in vivo
# Method: as §1
# pgam5 = biological target: T1, pgam5 (Homo sapiens, UniProt Q96HS1); assay: Western blot confirmation of binding to primordazine
# T1 sequence (Q96HS1 1-289): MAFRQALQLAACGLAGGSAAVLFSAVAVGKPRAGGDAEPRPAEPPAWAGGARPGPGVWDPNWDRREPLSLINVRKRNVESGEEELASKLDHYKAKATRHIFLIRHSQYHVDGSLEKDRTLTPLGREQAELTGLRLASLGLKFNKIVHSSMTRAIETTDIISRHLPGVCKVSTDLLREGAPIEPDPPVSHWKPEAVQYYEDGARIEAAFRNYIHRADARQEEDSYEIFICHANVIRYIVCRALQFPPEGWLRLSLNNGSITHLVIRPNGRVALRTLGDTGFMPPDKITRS
# nanos1 mRNA = nanos1 mRNA level (quantitative PCR) and localization (fluorescent in situ hybridization, confocal microscopy); format: in vivo, zebrafish
# Text: Therefore, mRNA destabilization is not the mechanism by which primordazine blocks nanos1 expression. Next, fluorescent in situ hybridization and confocal microscopy were used to examine the localization of nanos1 mRNA within germ cells.
# dCTPP1 = biological target: T2, dCTPP1 (Homo sapiens, UniProt Q9H773); assay: Western blot confirmation of binding to primordazine beads
# T2 sequence (Q9H773 1-170): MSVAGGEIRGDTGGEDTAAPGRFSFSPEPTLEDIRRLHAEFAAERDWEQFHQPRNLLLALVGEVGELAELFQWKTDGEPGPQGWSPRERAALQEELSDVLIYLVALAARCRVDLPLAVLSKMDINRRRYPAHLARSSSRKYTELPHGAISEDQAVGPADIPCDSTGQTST
# deadend 3′UTR = assay: Translation of GFP message tagged with fragments of the deadend 3′UTR; settings: in vivo
# Text: FIG. 26 illustrates that, in addition to regulating the translation of proteins containing elements from the nanos1 3′ UTR, primordazine blocks translation of proteins from mRNAs containing the deadend 3′UTR.
# PRE-containing mRNAs = assay: Translation of GFP mRNA tagged with nanos1 3′UTR in mammalian cell lines (western blotting); format: cell-based; settings: GFP mRNA tagged with 120 bases from nanos1 3′UTR, transfected mammalian cell lines
# Method: GFP mRNA was tagged with 120 bases from the nanos1 3′UTR and transfected into various mammalian cell lines. The effect of primordazine was determined by western blotting.
# [3] = system: primordazine response element (PRE) of nanos1 3′ UTR; assay: Translation of injected GFP reporter RNA fused to nanos1 3′ UTR / PRE; format: in vivo, zebrafish; settings: for translation of EGFP: EGFP mRNA fused to 120 bases of nanos1 3′UTR
# Text: During the process of confirming PGC loss in primordazine-treated embryos, it was discovered that GFP translation was highly sensitive to primordazine treatment when fused to the 3′ UTR of the nanos1 gene, but not when fused to other 3′ UTRs. The 3′ UTR of the nanos1 gene was examined for elements capable of conferring primordazine sensitivity. […] This sequence is called the Primordazine Response Element (PRE). […] When other sequences from the nanos1 3′ UTR are used, primordazine has no effect on GFP expression.
# mRNA translation is tested using the same GFP reporter depicted in FIG. 2. This reporter consists of GFP mRNA fused to the nanos1 3′ UTR with a mutant miR-430 site. When injected into one-cell stage zebrafish, GFP is expressed in both germ and somatic cells (Giraldez, A. J. et al. Zebrafish MiR-430 promotes deadenylation and clearance of maternal mRNAs. Science 312, 75-79 (2006); Mishima, Y. et al. Differential regulation of germline mRNAs in soma and germ cells by zebrafish miR-430. Curr Biol 16, 2135-2142 (2006)). […] As such, the quantity of mRNA is increased as detected by qPCR, but the quantity of GFP protein diminishes, as determined by quantitative fluorescence microscopy (see FIG. 2 for an example). Mutant animals were injected with the GFP reporter mRNA and quantify the amount of mRNA and protein present at 11 and 24 hours. Attention was paid to the effects of the mutations on baseline translation of GFP and also for effects of the mutations on responsiveness to primordazine.
# DHX9 = assay: Primordazine affinity matrix pull-down with iTRAQ; format: binding; settings: whole zebrafish lysates, with and without competition from free primordazine
# Method: A primordazine derivative was synthesized in which an 8-atom linker was appended from the indole nitrogen, terminating in a carboxylic acid (FIG. 4B). […] The derivatized primordazine was then coupled to Affi-Gel 102 agarose beads, generating an affinity matrix (FIG. 4C). The affinity matrix was incubated with whole zebrafish lysates with and without competition from free primordazine, and iTRAQ was used to identify any primordazine-binding proteins. An RNA helicase, DHX9, was identified as binding specifically to the affinity matrix, along with two RNA-binding adapter proteins HNRNPH1 and HNRNPA2B1.
# zebrafish embryos [4] = assay: Sex of adults after embryonic treatment; format: in vivo; settings: embryos treated during early development
# GFP labeled PGCs = assay: Count of GFP labeled PGCs in tilapia embryos exposed to primordazine; format: in vivo, Tilapia (Oreochromis niloticus); settings: for reduction in PGCs number: 5 uM; for GFP labeled cells in midline trunk region: 1 cell stage embryos, 3 day old; for reduction in PGCs number compared to control: after 3 days, 28° C.
# Method: Tilapia (Oreochromis niloticus) lines used in this study are derived from a Brazilian strain obtained from a US commercial producer. To study PGCs, assays were performed on embryos from female tilapia carrying the Zpc5:eGFP:tnos 3′UTR construct which produce embryos with GFP labeled PGCs. The tilapia Zpc5 promoter is an oocyte specific promoter, active during oogenesis prior to the first meiotic division. As such, all embryos from an heterozygous transgenic female inherit the eGFP:tnos 3′UTR mRNA, which localizes and become expressed exclusively in PGCs through the action of cis-acting RNA element in their 3′UTR (tilapia nanos 3′UTR). In this system GFP expression in the embryo is strictly maternal. Thus, similarly to zebrafish nos1 3′UTR, tilapia nanos 3′ UTR (tnos 3′UTR) can deliver mRNA and subsequently heterologous protein expression to the PGCs in developing embryos. In this line, GFP expression is first observed in 2 day old embryos, progeny of transgenic female. At 3 days post fertilization (dpf) in 28° C. water, GFP-expressing cells coalesced in two bilateral rows on the midline above the intestine (FIG. 41A). The GFP labeled primordial germ cell can be visualized for up to 6 days post fertilization but fluorescence starts to fade between days 4 & 5. Primordazine treatment: Embryos at different developmental stages were placed into hatching water at 28° C. in plastic Petri dishes with gentle stirring. The first cell division takes place approximately two hours post fertilization (hpf) and gastrulation begins at around 10 hpf. We transferred pre-gastrula (2 hpf, 5 hpf) and post-gastrula embryos (15 hpf) to 96 well plates (1-2 embryos/well) prefilled with hatching water supplemented with 2 fold dilution series of primordazine from 20 uM to 2.5 uM or DMSO (control). The 96 well plate was placed under gentle stirring in a temperature control room at 28° C. At time intervals, embryos were analyzed for GFP expression under a fluorescence dissecting microscope (Zeiss Stereo Discovery.V8) equipped with a GFP filter set. To quantify primordazine activity, 3 day old embryos were placed in fresh water and PGCs were counted. At this stage, in the non-treated control group, approximately 95% of PGCs have migrated to the genital ridges.
structure (smiles),measurement,setting,value
CCC(Sc1nnc2c3ccccc3n(CC)c2n1)C(=O)Nc1cccc(C(C)=O)c1 (centres unmarked) [primordazine],concentration for maximal efficacy of germ cell ablation,[1]; egg / hatching water concentration,6 µM
same,PGC-ablating activity,"[1]; zebrafish embryos, GFP in PGCs",ablates PGCs in a dose-dependent manner
same,effective concentration in zebrafish embryos,"[1]; zebrafish, in vivo",high nanomolar to low micromolar
same,apoptosis,zebrafish embryos [2]; FIG. 12,does not cause apoptosis
same,effect on development or organogenesis,zebrafish embryos [2]; effective doses,no visible effect
same,binding of pgam5,pgam5,bind
same,localization of nanos1 mRNA within germ cells,"nanos1 mRNA; fluorescent in situ hybridization, confocal microscopy",became localized to discrete puncta
same,nanos1 mRNA levels,nanos1 mRNA; quantitative PCR,no decrease
same,binding of dCTPP1,dCTPP1,bind
same,translation of EGFP from mRNAs containing the deadend 3′UTR,deadend 3′UTR,blocks the translation
same,translation of PRE-containing mRNAs,PRE-containing mRNAs,inhibits translation
same,translation of EGFP,[3]; absence of polyadenylation,effectively blocked translation
same,translation of EGFP,[3]; polyadenylated in vitro prior to injection,failed to block translation
same,translation of GFP protein,[3]; GFP mRNA followed by the nanos1 3′ UTR,prevents its translation
same,stability of GFP reporter mRNA,[3]; GFP mRNA with nanos1 3′ UTR,stabilizes the mRNA
same,translation of GFP RNA,"[3]; PRE placed in its 3′ UTR, RNA injected into zebrafish",blocked
same,GFP expression,[3]; other sequences from the nanos1 3′ UTR,no effect
same,binding of DHX9,DHX9,Binds
same,sex when adult,zebrafish embryos [4],tend to be males
same,reduction in PGCs number,GFP labeled PGCs; later time point (13 hour old embryos),41%
same,reduction in PGCs number,GFP labeled PGCs; treatment begins at 2 hpf,72%
same,GFP labeled cells in midline trunk region,GFP labeled PGCs; 10 uM,marked reduction in number
same,reduction in PGCs number compared to control,"GFP labeled PGCs; 10 uM, 5 hours old embryos",47%
same,GFP labeled cells in midline trunk region,GFP labeled PGCs; 20 uM,complete disappearance
same,reduction in PGCs number compared to control,"GFP labeled PGCs; 20 uM, 5 hours old embryos",67%
same,level of GFP intensity in PGCs,GFP labeled PGCs; 5 hours old embryos,reduced
